Measurements as given in patent publication US8242113B2, “Oxazolidinone derivatives with cyclic amidoxime or cyclic amidrazone pharmaceutical compositions thereof” (Legochem Biosciences, Inc., priority 2008, dated 2012).
Values after ≈ are worked out from the molar mass of the structure shown.

Tests used:
[1] = tested on: methicillin-resistant Staphylococcus aureus (MRSA); assay: In vitro antibacterial activity, broth microdilution (MIC90); details: read-out: Antibacterial activity MIC90, MRSA
Description: (§1) MIC90 measurement was made according to the broth microdilution method based on the CLSI document [Clinical and Laboratory Standards Institute Document.
(§2) The test compounds in DMSO solution were further diluted 20-fold with sterile distilled water.

[2] = tested on: linezolid- and vancomycin-resistant Enterococcus faecalis (LVRE); assay: as above; details: read-out: Antibacterial activity MIC90, LVRE
Description: as §1, §2

Structure (SMILES) | MIC90 [1] | MIC [2]
O=C1O[C@@H](CNc2ccon2)CN1c1ccc(N2C=NNCC2)c(F)c1 [Compound 86] | 0.5 µg/mL (≈ 1.39 µM) | 8 µg/mL (≈ 22.2 µM)
O=CN1CCN(c2ccc(N3C[C@H](CNC(=O)C(Cl)Cl)OC3=O)cc2F)C=N1 [Compound 51] | 1 µg/mL (≈ 2.31 µM) | 4 µg/mL (≈ 9.25 µM)
COC(=S)NC[C@H]1CN(c2ccc(N3C=NN(CCOC(C)=O)CC3)c(F)c2)C(=O)O1 [Compound 71] | 0.5 µg/mL (≈ 1.1 µM) | 4 µg/mL (≈ 8.82 µM)
CC(=O)NC[C@H]1CN(c2ccc(N3C=NN(C#N)CC3)c(F)c2)C(=O)O1 [Compound 9] | 0.5 µg/mL (≈ 1.39 µM) | 8 µg/mL (≈ 22.2 µM)
CN1CCN(c2ccc(N3C[C@H](CNc4ccon4)OC3=O)cc2)C=N1 [Compound 101] | 1 µg/mL (≈ 2.81 µM) | 32 µg/mL (≈ 89.8 µM)
O=CN1CCN(c2ccc(N3C[C@H](CNc4ccon4)OC3=O)cc2F)C=N1 [Compound 85] | 0.5 µg/mL (≈ 1.29 µM) | 16 µg/mL (≈ 41.2 µM)
CC(=O)NC[C@H]1CN(c2ccc(N3C=NN(C(N)=O)CC3)c(F)c2)C(=O)O1 [Compound 14] | 2 µg/mL (≈ 5.29 µM) | 8 µg/mL (≈ 21.1 µM)
COC(=S)NC[C@H]1CN(c2ccc(N3C=NN(C(=S)OC)CC3)c(F)c2)C(=O)O1 [Compound 72] | 0.5 µg/mL (≈ 1.13 µM) | 2 µg/mL (≈ 4.53 µM)
COC(=S)NC[C@H]1CN(c2ccc(N3C=NN(C4CCC4)CC3)c(F)c2)C(=O)O1 [Compound 68] | 0.25 µg/mL (≈ 0.593 µM) | 2 µg/mL (≈ 4.74 µM)
COC(=S)NC[C@H]1CN(c2ccc(N3C=NN(C)CC3)c(F)c2)C(=O)O1 [Compound 60] | 0.25 µg/mL (≈ 0.655 µM) | 2 µg/mL (≈ 5.24 µM)
CN1CCN(c2c(F)cc(N3C[C@H](Cn4ccnn4)OC3=O)cc2F)C=N1 [Compound 104] | 2 µg/mL (≈ 5.3 µM) | 32 µg/mL (≈ 84.8 µM)
CC(=O)NC[C@H]1CN(c2ccc(N3C=NN(C(=S)NCCO)CC3)c(F)c2)C(=O)O1 [Compound 33] | 2 µg/mL (≈ 4.56 µM) | 8 µg/mL (≈ 18.2 µM)
CC(=O)NC[C@H]1CN(c2ccc(N3C=NOCC3)c(F)c2)C(=O)O1 [Compound 28] | 2 µg/mL (≈ 5.95 µM) | 16 µg/mL (≈ 47.6 µM)
C#CCN1CCN(c2ccc(N3C[C@H](CNc4ccon4)OC3=O)cc2F)C=N1 [Compound 91] | 0.5 µg/mL (≈ 1.26 µM) | 8 µg/mL (≈ 20.1 µM)
CC(=O)NC[C@H]1CN(c2ccc(N3C=NN(C(=O)C(F)F)CC3)c(F)c2)C(=O)O1 [Compound 17] | 1 µg/mL (≈ 2.42 µM) | 8 µg/mL (≈ 19.4 µM)
CC(=O)NC[C@H]1CN(c2ccc(N3C=NN(C(=O)C4CC4)CC3)c(F)c2)C(=O)O1 [Compound 13] | 4 µg/mL (≈ 9.92 µM) | 16 µg/mL (≈ 39.7 µM)
COC(=S)NC[C@H]1CN(c2ccc(N3C=NN(C)CC3)cc2)C(=O)O1 [Compound 98] | 1 µg/mL (≈ 2.75 µM) | 16 µg/mL (≈ 44 µM)
CC(=O)NC[C@H]1CN(c2ccc(N3C=NN(CC(F)(F)F)CC3)c(F)c2)C(=O)O1 [Compound 8] | 4 µg/mL (≈ 9.58 µM) | 16 µg/mL (≈ 38.3 µM)
CC(=O)NC[C@H]1CN(c2ccc(N3C=NN(CC(=O)NO)CC3)c(F)c2)C(=O)O1 [Compound 26] | 16 µg/mL (≈ 39.2 µM) | 64 µg/mL (≈ 157 µM)
CC(=O)NC[C@H]1CN(c2ccc(N3C=NN(C(N)=S)CC3)c(F)c2)C(=O)O1 [Compound 29] | 0.5 µg/mL (≈ 1.27 µM) | 4 µg/mL (≈ 10.1 µM)
CC#CCN1CCN(c2ccc(N3C[C@H](CNC(=S)OC)OC3=O)cc2F)C=N1 [Compound 64] | 2 µg/mL (≈ 4.77 µM) | 8 µg/mL (≈ 19.1 µM)
CC(=O)NC[C@H]1CN(c2ccc(N3C=NN(C=O)CC3)cc2)C(=O)O1 [Compound 95] | 1 µg/mL (≈ 2.9 µM) | 16 µg/mL (≈ 46.3 µM)
CCN1CCN(c2ccc(N3C[C@H](CNc4ccon4)OC3=O)cc2F)C=N1 [Compound 90] | 2 µg/mL (≈ 5.15 µM) | 8 µg/mL (≈ 20.6 µM)

Structure (SMILES) | MIC90 [1] | MIC [2]
CC(=O)NC[C@H]1CN(c2ccc(N3C=NN(CC#N)CC3)c(F)c2)C(=O)O1 [Compound 7] | 1 µg/mL (≈ 2.67 µM) | 8 µg/mL (≈ 21.4 µM)
CC(=O)NC[C@H]1CN(c2ccc(N3C=NN(C(C)=S)CC3)c(F)c2)C(=O)O1 [Compound 34] | 0.5 µg/mL (≈ 1.27 µM) | 4 µg/mL (≈ 10.2 µM)
CCNC(=O)NC[C@H]1CN(c2ccc(N3C=NN(C=O)CC3)c(F)c2)C(=O)O1 [Compound 44] | 8 µg/mL (≈ 20.4 µM) | 64 µg/mL (≈ 163 µM)
CC(=O)NC[C@H]1CN(c2ccc(N3C=NN(C(C)=O)CC3)c(F)c2)C(=O)O1 [Compound 10] | 4 µg/mL (≈ 10.6 µM) | 32 µg/mL (≈ 84.8 µM)
CC(=S)NC[C@H]1CN(c2ccc(N3C=NNCC3)c(F)c2)C(=O)O1 [Compound 74] | 0.25 µg/mL (≈ 0.711 µM) | 2 µg/mL (≈ 5.69 µM)
CC(=O)NC[C@H]1CN(c2ccc(N3C=NN(S(=O)(=O)N(C)C)CC3)c(F)c2)C(=O)O1 [Compound 21] | 2 µg/mL (≈ 4.52 µM) | 4 µg/mL (≈ 9.04 µM)
C#CCN1CCN(c2ccc(N3C[C@H](CNC(=O)C(F)F)OC3=O)cc2F)C=N1 [Compound 49] | 1 µg/mL (≈ 2.44 µM) | 8 µg/mL (≈ 19.5 µM)
CC(=O)NC[C@H]1CN(c2ccc(N3C=NN(S(N)(=O)=O)CC3)c(F)c2)C(=O)O1 [Compound 20] | 16 µg/mL (≈ 38.6 µM) | 64 µg/mL (≈ 154 µM)
COC(=S)NC[C@H]1CN(c2ccc(N3C=NN(CCO)CC3)c(F)c2)C(=O)O1 [Compound 70] | 1 µg/mL (≈ 2.43 µM) | 4 µg/mL (≈ 9.72 µM)
O=C1O[C@@H](Cn2ccnn2)CN1c1ccc(N2C=NNCC2)c(F)c1 [Compound 82] | 2 µg/mL (≈ 5.79 µM) | 32 µg/mL (≈ 92.7 µM)
COC(=S)NC[C@H]1CN(c2ccc(N3C=NN(CC4CC4)CC3)c(F)c2)C(=O)O1 [Compound 67] | 0.5 µg/mL (≈ 1.19 µM) | 4 µg/mL (≈ 9.49 µM)
C=C(C)CN1CCN(c2ccc(N3C[C@H](CNC(C)=O)OC3=O)cc2F)C=N1 [Compound 39] | 2 µg/mL (≈ 5.14 µM) | 8 µg/mL (≈ 20.5 µM)
O=CN1CCN(c2ccc(N3C[C@H](CNc4ccon4)OC3=O)cc2)C=N1 [Compound 100] | 0.5 µg/mL (≈ 1.35 µM) | 32 µg/mL (≈ 86.4 µM)
CCOC(=S)NC[C@H]1CN(c2ccc(N3C=NN(C=O)CC3)c(F)c2)C(=O)O1 [Compound 54] | 0.5 µg/mL (≈ 1.22 µM) | 4 µg/mL (≈ 9.77 µM)
CC(=S)NC[C@H]1CN(c2ccc(N3C=NN(C=O)CC3)c(F)c2)C(=O)O1 [Compound 73] | 0.0625 µg/mL (≈ 0.165 µM) | 2 µg/mL (≈ 5.27 µM)
O=CN1CCN(c2ccc(N3C[C@H](COc4ccon4)OC3=O)cc2F)C=N1 [Compound 79] | 8 µg/mL (≈ 20.5 µM) | > 64 µg/mL
C#CCN1CCN(c2ccc(N3C[C@H](Cn4ccnn4)OC3=O)cc2F)C=N1 [Compound 84] | 0.5 µg/mL (≈ 1.3 µM) | 16 µg/mL (≈ 41.7 µM)
O=C(CO)N1CCN(c2ccc(N3C[C@H](CNc4ccon4)OC3=O)cc2F)C=N1 [Compound 87] | 0.5 µg/mL (≈ 1.2 µM) | 8 µg/mL (≈ 19.1 µM)
O=CN1CCN(c2ccc(N3C[C@H](CNC(=S)C(F)F)OC3=O)cc2F)C=N1 [Compound 77] | 0.5 µg/mL (≈ 1.2 µM) | 4 µg/mL (≈ 9.63 µM)
O=CN1CCN(c2ccc(N3C[C@H](CNC(=O)C(F)F)OC3=O)cc2F)C=N1 [Compound 45] | 1 µg/mL (≈ 2.5 µM) | 4 µg/mL (≈ 10 µM)
CC(=O)NC[C@H]1CN(c2ccc(N3C=NN(C)CC3)c(F)c2)C(=O)O1 [Compound 3] | 2 µg/mL (≈ 5.72 µM) | 8 µg/mL (≈ 22.9 µM)
CC(=O)NC[C@H]1CN(c2ccc(N3C=NN(CCO)CC3)c(F)c2)C(=O)O1 [Compound 27] | 4 µg/mL (≈ 10.5 µM) | 64 µg/mL (≈ 169 µM)
COC(=S)NC[C@H]1CN(c2ccc(N3C=NN(CC#N)CC3)c(F)c2)C(=O)O1 [Compound 65] | 0.5 µg/mL (≈ 1.23 µM) | 4 µg/mL (≈ 9.84 µM)

Structure (SMILES) | MIC90 [1] | MIC [2]
O=CN1CCN(c2ccc(N3C[C@H](Cn4ccnn4)OC3=O)cc2F)C=N1 [Compound 81] | 1 µg/mL (≈ 2.68 µM) | 16 µg/mL (≈ 42.9 µM)
CCOC(=O)CN1CCN(c2ccc(N3C[C@H](CNC(C)=O)OC3=O)cc2F)C=N1 [Compound 24] | 2 µg/mL (≈ 4.75 µM) | 16 µg/mL (≈ 38 µM)
O=C(NC[C@H]1CN(c2ccc(N3C=NN(C(=O)CO)CC3)c(F)c2)C(=O)O1)C(F)F [Compound 47] | 2 µg/mL (≈ 4.66 µM) | 8 µg/mL (≈ 18.6 µM)
COC(=S)N1CCN(c2ccc(N3C[C@H](CNC(C)=O)OC3=O)cc2F)C=N1 [Compound 30] | 1 µg/mL (≈ 2.44 µM) | 4 µg/mL (≈ 9.77 µM)
CC(=O)NC[C@H]1CN(c2ccc(N3C=NN(C4CCC4)CC3)c(F)c2)C(=O)O1 [Compound 41] | 2 µg/mL (≈ 5.14 µM) | 4 µg/mL (≈ 10.3 µM)
CN1CCN(c2c(F)cc(N3C[C@H](CNc4ccon4)OC3=O)cc2F)C=N1 [Compound 106] | 0.5 µg/mL (≈ 1.27 µM) | 16 µg/mL (≈ 40.8 µM)
CC(=O)NC[C@H]1CN(c2ccc(N3C=NN(C(=O)C(C)=O)CC3)c(F)c2)C(=O)O1 [Compound 36] | 2 µg/mL (≈ 4.93 µM) | 8 µg/mL (≈ 19.7 µM)
CCOC(=O)NC[C@H]1CN(c2ccc(N3C=NN(C=O)CC3)c(F)c2)C(=O)O1 [Compound 43] | 2 µg/mL (≈ 5.08 µM) | 32 µg/mL (≈ 81.3 µM)
C=C(Cl)CN1CCN(c2ccc(N3C[C@H](CNC(C)=O)OC3=O)cc2F)C=N1 [Compound 40] | 2 µg/mL (≈ 4.88 µM) | 8 µg/mL (≈ 19.5 µM)
CC(=S)NC[C@H]1CN(c2ccc(N3C=NN(C(=O)CO)CC3)c(F)c2)C(=O)O1 [Compound 76] | 0.5 µg/mL (≈ 1.22 µM) | 2 µg/mL (≈ 4.88 µM)
CC(=O)NC[C@H]1CN(c2ccc(N3C=NNCC3)c(F)c2)C(=O)O1 [Compound 2] | 2 µg/mL (≈ 5.96 µM) | 16 µg/mL (≈ 47.7 µM)
O=C1O[C@@H](CO)CN1c1ccc(N2C=NNCC2)c(F)c1 [Compound 93] | 1 µg/mL (≈ 3.4 µM) | 32 µg/mL (≈ 109 µM)
N#CCC(=O)NC[C@H]1CN(c2ccc(N3C=NN(C=O)CC3)c(F)c2)C(=O)O1 [Compound 42] | 8 µg/mL (≈ 20.6 µM) | 32 µg/mL (≈ 82.4 µM)
CCN1CCN(c2ccc(N3C[C@H](CNC(=O)C(F)F)OC3=O)cc2F)C=N1 [Compound 48] | 4 µg/mL (≈ 10 µM) | 16 µg/mL (≈ 40.1 µM)
N#CCN1CCN(c2ccc(N3C[C@H](CNC(=O)C(F)F)OC3=O)cc2F)C=N1 [Compound 50] | 2 µg/mL (≈ 4.87 µM) | 16 µg/mL (≈ 39 µM)
COC(=S)NC[C@H]1CN(c2ccc(N3C=NNCC3)c(F)c2)C(=O)O1 [Compound 58] | 0.25 µg/mL (≈ 0.68 µM) | 4 µg/mL (≈ 10.9 µM)
COC(=S)NC[C@H]1CN(c2ccc(N3C=NN(C(=O)COC(C)=O)CC3)c(F)c2)C(=O)O1 [Compound 59] | 0.5 µg/mL (≈ 1.07 µM) | 2 µg/mL (≈ 4.28 µM)
C=CCN1CCN(c2ccc(N3C[C@H](CNC(C)=O)OC3=O)cc2F)C=N1 [Compound 4] | 1 µg/mL (≈ 2.66 µM) | 8 µg/mL (≈ 21.3 µM)
O=CN1CCN(c2ccc(N3C[C@H](CNC(=O)c4ccno4)OC3=O)cc2F)C=N1 [Compound 52] | 2 µg/mL (≈ 4.8 µM) | 16 µg/mL (≈ 38.4 µM)
CC(=S)NC[C@H]1CN(c2ccc(N3C=NN(CC#N)CC3)c(F)c2)C(=O)O1 [Compound 75] | 0.25 µg/mL (≈ 0.64 µM) | 2 µg/mL (≈ 5.12 µM)
CC(=O)NC[C@H]1CN(c2ccc(N3C=NN(CC(N)=O)CC3)c(F)c2)C(=O)O1 [Compound 25] | 4 µg/mL (≈ 10.2 µM) | 32 µg/mL (≈ 81.6 µM)
